Entries after “also recorded” stand apart in the source; their conditions may differ. Where two headings read alike, the source gives them in different places.
Key:
[1] = test system: Nav1.5 in T1R1-silenced HEK cells; test: VGSC current in HEK Nav1.5 cells with silenced T1R1; assay type: cell-based, human; conditions: 5 mM for MSG2.5
VGSC = test: Patch-clamp recording of VGSC current, cell type not specified or several cell types (summary statements); assay type: cell-based, human
HEK Nav1.5 cells = test: GFP-Tubulin / GFP-Actin cytoskeleton observation in HEK Nav1.5 cells; assay type: cell-based, human; conditions: MSG 5 mM
Description: To observe the impact of cinacalcet and Aβ1-42 peptide on microfilament (actin) fiber structures, we labeled cells with GFP-Actin (FIG. 34). […] This experimental approach, using GFP-Tubulin, GFP-Actin, or other fluorescent proteins to label microtubules and microfilaments, can be used to screen compounds that regulate the activity of ion channels and neuronal function-controlling proteins. Additionally, simultaneous labeling of tubulin and actin can be achieved using fluorescent antibodies or phalloidin after cell fixation.

[2] = test system: VGSC of SH-SY5Y cells (Nav1.7, Nav1.2, Nav1.3); test: Patch-clamp recording of VGSC current in differentiated SH-SY5Y cells; assay type: cell-based, human; conditions: 5 mM
Nav1.5 = test: Patch-clamp (voltage clamp) recording of VGSC current in HEK cells stably expressing Nav1.5; conditions: for Effect on VGSC current enhanced by Aβ42/40 (AD-D): applied after Aβ42/40 (AD-D)
[3] = test system: voltage-dependent potassium channel current of SH-SY5Y cells; test: Voltage clamp recording of outward potassium current in SH-SY5Y cells; assay type: cell-based, human; conditions: 5 mM
Description: The inward current represents the transient peak observed immediately after stimulation, while the outward current measures the average value during the last 50 ms of rectangular pulse stimulation.

Kv1.2 = test: Patch-clamp recording of Kv1.2 potassium current in HEK cells expressing Kv1.2; assay type: cell-based, human
Protocol: The effects of Aβ peptides or umami substances on sustained potassium currents (VGKC) in cardiac myocytes can be studied using HEK cells expressing VGKC (such as Kv1.2, Kv3.2, Kv3.3) as well as SH-SY5Y cells expressing endogenous T1R GPCRs. For instance, as shown in the implementation example in (FIG. 36B), Aβ peptides were applied to VGKC-expressing human cultured cells, and VGKC currents were recorded using ramp-like or rectangular voltage waveforms via the patch-clamp technique. This allowed measurement of the changes (inhibition) in VGKC currents caused by Aβ peptides. Similar inhibition studies on VGKC can be conducted using umami substance L-glutamate sodium (MSG) (FIG. 36A).
As shown in (FIG. 37), Aβ1-42 peptide, unlike Aβ25-35 targeting T1R3, interacts with T1R1 and inhibits VGSC currents (FIGS. 37D, E).

[4] = test system: T1R3 inherent in HEK cells; test: Impedance of HEK Nav1.5 cell sheet; assay type: cell-based, human
Protocol: Specifically, cells were cultured on a conductive glass (FTO glass, thickness 2.2 mm) electrode plate to form a sheet, and the change in impedance value of the cell sheet was measured by applying current stimulation between the conductive glass covered with cells and the extracellular solution. The measurement experiment was conducted using the voltage-clamp method. A voltage pulse of 1 mV (1 Hz, 220 ms width) was applied between the silver chloride electrode placed in the extracellular solution and the electrode plate, and the change caused by the amyloid peptide was measured as a change in current (I).
By measuring the current response (I) occurring there, the resistance ® of the entire cell sheet to the applied voltage (1 mV) can be calculated from Ohm's law (V=IR>R=V/I). As shown in (FIG. 46), it was confirmed that the T1R3 antibody inhibits the effect of Aβ1-40 peptide.

[5] = test system: Nav1.5 in T1R3-silenced HEK cells; test: VGSC current in HEK Nav1.5 cells with silenced T1R3; assay type: cell-based, human
Outline: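 VGSC currents were recorded in HEK-Nav1.5 cells with T1R3 knocked down by a miRNA expression vector, stimulated every 8 s. The effect of Aβ25-35 peptide was compared with control HEK-Nav1.5 cells.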

HEK cells = test: Cell morphology observation (bright-field), HEK cells; assay type: cell-based, human
Description: (§1) In a previous implementation example (FIG. 54), it was shown that Aβ peptides and artificial sweeteners cause depolymerization of the cytoskeleton. […] To easily compare and confirm the morphological changes before and after the application of Aβ1-40, the areas of interest were circled with dashed lines. Observations were made using bright-field microscopy. Images were captured with a camera (UI-3880CP-M) from IDS mounted on the microscope, and the images were imported to a PC using the software that came with the camera. Further image processing was done using ImageJ (Rasband, 1997-2018).
The solution (HHBS*) was adjusted to achieve the final concentration values shown in Table 11 for Aβ42/40, and the changes in cell morphology were observed. Indicators included cell body contraction, extension, or the presence of lamellipodia ruffling around the cell periphery.

Nav1.1 = test: Patch-clamp recording of VGSC current in HEK (Nav1.1) cells; assay type: cell-based, human
Description: (§2) The cells used in the previous (18-1) experiment were cardiac-type VGSC cells. In this experiment, HEK (Nav1.1) and HEK (Nav1.6) cells, which are considered neuronal VGSC cells, were created. The effects of four peptides—Aβ25-35, Aβ1-38, Aβ1-40, and Aβ1-42—were examined using the same experimental protocol as in (18-1).

Nav1.6 = test: Patch-clamp recording of VGSC current in HEK (Nav1.6) cells; assay type: cell-based, human
Description: as §2, with “(18-1). […]” for “(18-1).”

[6] = test system: endogenous T1R GPCR of HEK cells; test: Intracellular calcium (Cal-520) in HEK cells stably expressing Nav1.1 with endogenous T1R GPCR; assay type: cell-based, human; conditions: 10 nM then 20 nM for Aβ1-40 and Aβ1-42
Protocol: Specifically, experiments were conducted as follows using HEK cells stably expressing Nav1.1 (FIG. 45). The calcium-sensitive reagent (Cal-520, AAT Bioquest) was incubated at 37° C. for 60 minutes, followed by incubation at room temperature for 30 minutes, and then changes in intracellular calcium were measured using a fluorescence microscope. […] Initially, 10 nM, followed by 20 nM of Aβ1-40 was applied after 5 minutes (arrow). […] A total of 6 cell groups from two independent experiments were measured, averaged by the maximum fluorescence response value, and the mean and standard error (stderr) were calculated and plotted. […] 10 nM, followed by 20 nM of Aβ1-42 was applied after 5 minutes (arrow). […] A total of 12 cell groups from two independent experiments were measured, averaged by the minimum fluorescence response value, and the mean and standard error (stderr) were calculated and plotted. Similar to the experimental results using the patch-clamp method when Aβ peptide was applied to Nav1.5, it was confirmed from intracellular calcium measurements that the effects of Aβ1-40 and Aβ1-42 were different.

HUEhT-1 cells = test: Cell morphology observation, HUEhT-1 umbilical vein endothelial cells; assay type: cell-based, human; conditions: Aβ1-40 at 12.5 nM
Description: as §1

VGSC of NG108-15 cells = test: Whole-cell patch-clamp of VGSC current in differentiated NG108-15 cells; assay type: cell-based, mouse/rat; conditions: subsequent application
Description: Specifically, we used mouse/rat hybridoma cells NG108-15 differentiated into neuronal-like cells using forskolin and low-concentration FBS treatment, along with human-derived cells expressing human Nav1.5. We recorded VGSC currents using the whole-cell patch-clamp method and observed the effects of Aβ peptides (FIG. 58A-1, B). The term “Aβ peptides” here refers to a mixture of Aβ40 and Aβ42. We used two types of mixtures similar to those used in the experiments on cell morphology and lamellipodia dynamics. One mixture corresponds to the Aβ42/40 ratio observed in cerebrospinal fluid from healthy individuals (NDC: non-demented control), and the other corresponds to the ratio observed in cerebrospinal fluid from Alzheimer's disease patients with cognitive impairment (AD-D).

SH-SY5Y cells = test: Cell morphology observation, SH-SY5Y cells; assay type: cell-based, human; conditions: neuron-like differentiated SH-SY5Y cells

## N[C@@H](CCC(=O)O)C(=O)[O-].[Na+] [MSG, monosodium glutamate]
[1]
  Effect on VGSC currents in T1R1-silenced cells: MSG had no effect on VGSC enhancement in T1R1 silenced cells.
VGSC
  Effect on VGSC inactivation: delays the inactivation of VGSC
  Effects on VGSCs: Transient enhancement of VGSC; also recorded: Left shift of the I-V curve
VGSC; 5 mM
  VGSC I-V curve: 5 mM MSG shifts the VGSC I-V curve to a more hyperpolarized direction.
VGSC; 10 mM
  Delay of VGSC inactivation: This delaying effect even more evident at 10 mM MSG.
VGSC; VGSC inhibited by more than 80% by dichlorprop
  Inactivation curve of VGSC shifted by dichlorprop: partially recovered
VGSC; cells pre-treated with aspartame or saccharin
  Suppression / leftward S-S shift of VGSC caused by artificial sweeteners: partially reversed
VGSC; listed as L-Glu (MSG)
  Effects on VGSCs: Delay in VGSC inactivation
HEK Nav1.5 cells
  Microtubule fibrous structure (GFP-Tubulin): disappearance of microtubule-like structures; also recorded: microtubule structure disappeared
[2]
  Inactivation of VGSC current: delayed; also recorded: The inactivation speed of VGSC slows in 2 out of 3 SH-SY5Y cells
Nav1.5; 5 mM
  Inactivation process of transient VGSC current: significantly delayed; also recorded: This delay in inactivation speed more pronounced in Nav1.5 cells
Nav1.5; 10 mM, after CK2 inhibitor TBB
  VGSC current suppressed by TBB: partially recovered from TBB suppression
Nav1.5; after TBB
  S-S curve shifted by TBB: partially reversed the leftward shift caused by TBB
[3]
  Effect on outward potassium current: reduces the voltage-dependent potassium channel current; also recorded: decrease in outward currents
Kv1.2
  Effect on voltage gated K+ channel (Kv1.2) current: Inhibition of Voltage gated

## Aβ1-40: amyloid β peptide, Sequence No. 3
[4]
  Change of impedance of cell sheet: decrease in impedance
[5]
  Effect on VGSC in T1R3-silenced cells: is lost
Nav1.5
  Effect on VGSC current amplitude: reduced VGSC currents for both prepulse potentials
  Shift of steady-state inactivation (S-S) curve of VGSC: to the left; also recorded: more towards the hyperpolarizing direction
HEK cells; Aβ1-40 at 12.5 nM
  Change in cell morphology: a decrease in cell area/volume
Nav1.1
  Effect on VGSC current: VGSC enhancement
Nav1.6
  Effect on VGSC current: VGSC enhancement
[6]
  Change in intracellular calcium: increased intracellular calcium levels; also recorded: continued to slowly increase
HUEhT-1 cells
  Change in cell morphology: a decrease in cell area/volume
HUEhT-1 cells; listed as Aβ40
  Change in cell morphology: significant cell body contraction (atrophy)

## NCCC(=O)O [β-alanine]
VGSC of NG108-15 cells
  Effect on VGSC current after Aβ42/40 (AD-D): did not cause any further changes
Nav1.5
  Effect on VGSC current enhanced by Aβ42/40 (AD-D): reversed; also recorded: reverse the enhancement of VGSC current; also recorded: nearly returned to the control level
Nav1.5; listed as D-alanine
  Effect on VGSC current enhanced by Aβ42/40 (AD-D): nearly restoring it to control levels
SH-SY5Y cells
  Lamellipodia activity: enhances lamellipodia activity
HEK cells; 5 μM
  Effect on cell motility: promotes cell motility
HEK cells; HEK cells, data not shown
  Effect on cells contracted and inactive due to Aβ AD: induces activity in cells

From US20260240820A1, “METHOD FOR CONTROLLING MEMBRANE POTENTIAL-DEPENDENT ION CHANNEL THROUGH TYPE I TASTE RECEPTORS (T1RS)” (ION CHAT RESEARCH CORPORATE, priority 2022, published 2026)
